Columns and labels:
3T3 L1 fibroblasts = assay: Adipocyte differentiation assay, Oil Red O staining; type: cell-based; conditions: 20 μM AJA, 10 days, 10 μg/ml insulin
Description: The adipocyte differentiation assay was performed as described by Mukherjee et. al. (Mol Endocrinol 14: 1425-33, 2000). The 3T3 L1 cells (American Type Culture Collection) were cultured in DMEM media supplemented with 10% calf serum. Two days after reaching confluence, cells were treated with AJA, GW347845, or vehicle (0.1% DMSO) in the presence of 10 μg/ml insulin every other day. After 10 days of treatment with AJA or 7 days with GW347845 at confluence, cells were fixed and stained with Oil Red O (Sigma). For RT-PCR, total cellular RNAs were isolated by TRIzol (Gibco). Reverse transcriptase polymerase chain reaction (RT-PCR) was performed using the superscript first-strand synthesis kit (Invitrogen). After first-strand cDNA was synthesized by use of oligo (dT), cDNA was amplified by PCR. […]
3T3 L1 fibroblasts cells were cultured in DMEM supplemented with 10% calf serum. […] The cells were treated for 10 days with AJA, or 7 days with GW347845, and lipid accumulation in cells was assessed by Oil Red O staining.

COX-1 = COX-1 (Homo sapiens, UniProt P23219); conditions: 0.25-25 μM, Zurier et al. 1998; cited from earlier work
COX-1, sequence (P23219 24-599): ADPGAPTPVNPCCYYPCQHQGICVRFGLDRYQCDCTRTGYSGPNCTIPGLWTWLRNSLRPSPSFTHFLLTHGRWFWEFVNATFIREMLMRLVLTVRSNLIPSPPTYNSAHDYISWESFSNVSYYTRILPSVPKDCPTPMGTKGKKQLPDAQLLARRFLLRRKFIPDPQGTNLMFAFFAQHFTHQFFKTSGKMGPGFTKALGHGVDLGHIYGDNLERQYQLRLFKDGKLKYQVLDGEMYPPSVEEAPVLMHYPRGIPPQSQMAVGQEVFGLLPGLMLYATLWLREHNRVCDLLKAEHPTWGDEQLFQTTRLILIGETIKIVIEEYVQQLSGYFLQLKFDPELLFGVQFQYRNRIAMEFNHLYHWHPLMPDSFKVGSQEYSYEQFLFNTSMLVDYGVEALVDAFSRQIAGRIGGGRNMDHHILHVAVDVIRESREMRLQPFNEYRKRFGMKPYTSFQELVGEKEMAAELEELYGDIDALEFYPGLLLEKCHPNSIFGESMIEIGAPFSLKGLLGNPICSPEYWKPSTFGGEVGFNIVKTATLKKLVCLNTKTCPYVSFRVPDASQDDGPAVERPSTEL

PPARα = target: T1, PPARα (Mus musculus, UniProt P23204); assay: PPRE-TK-LUC reporter transient transfection, PPARα; type: cell-based; conditions: 1 to 20 μM AJA
T1 construct: expressed in transfected cells; host or cells: HEK293 / HEK293T
T1 sequence (P23204 1-468): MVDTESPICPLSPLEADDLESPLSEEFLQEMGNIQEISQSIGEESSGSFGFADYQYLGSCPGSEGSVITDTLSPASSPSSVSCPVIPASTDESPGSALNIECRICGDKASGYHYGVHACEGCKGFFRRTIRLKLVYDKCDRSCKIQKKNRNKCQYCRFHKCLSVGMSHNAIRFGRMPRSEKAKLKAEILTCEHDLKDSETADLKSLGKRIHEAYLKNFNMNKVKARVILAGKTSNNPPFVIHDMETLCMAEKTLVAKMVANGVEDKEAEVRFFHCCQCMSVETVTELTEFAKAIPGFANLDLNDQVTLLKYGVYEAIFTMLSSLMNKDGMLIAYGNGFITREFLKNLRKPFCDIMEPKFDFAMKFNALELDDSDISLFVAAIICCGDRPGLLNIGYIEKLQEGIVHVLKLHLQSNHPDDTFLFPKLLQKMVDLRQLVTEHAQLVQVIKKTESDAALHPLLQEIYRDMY
Description: For PPARγ activation assay, HEK293 cells were plated in 12-well cell culture plates and maintained in Dulbecco's modified Eagle's medium (DMEM) supplemented with 10% fetal bovine serum (FBS) at 37° C. under 5% CO2. Cells were changed to phenol red-free DMEM supplemented with 10% charcoal-stripped fetal bovine serum 3 hours before transfection by a standard calcium-phosphate precipitation method. Twelve hours after transfection, the cells were washed with phosphate-buffered saline (PBS) and fed again with fresh medium containing the indicated concentrations of compounds. After 36 hours, cells were harvested for β-galactosidase and luciferase activities as described previously (Li et al., Proc Natl Acad Sci USA 94:8479-84, 1997). The average normalized luciferase activity was determined via triplicate experiments. For IL-8 promoter assay, HeLa cells were maintained and transfected in the same way as described above. After transfection, cells were recovered for 4 hours before treatment with AJA, GW347845, or solvent. After 3-4 hours, cells were treated with or without 25 nM of phorbol myristate acetate (PMA) for 24 hours.
In an effort to confirm that AJA activates PPARγ selectively, the ability of AJA to activate PPARα and PPARδ was analyzed in a similar transient transfection assay.

hRXRα = target: T2, hRXRα (Homo sapiens, UniProt P19793); assay: DR1-TK-LUC reporter assay, RXRα; type: cell-based; conditions: saturating concentrations, HEK293 cells
T2 construct: expressed in transfected cells; host or cells: HEK293
T2 sequence (P19793 1-462): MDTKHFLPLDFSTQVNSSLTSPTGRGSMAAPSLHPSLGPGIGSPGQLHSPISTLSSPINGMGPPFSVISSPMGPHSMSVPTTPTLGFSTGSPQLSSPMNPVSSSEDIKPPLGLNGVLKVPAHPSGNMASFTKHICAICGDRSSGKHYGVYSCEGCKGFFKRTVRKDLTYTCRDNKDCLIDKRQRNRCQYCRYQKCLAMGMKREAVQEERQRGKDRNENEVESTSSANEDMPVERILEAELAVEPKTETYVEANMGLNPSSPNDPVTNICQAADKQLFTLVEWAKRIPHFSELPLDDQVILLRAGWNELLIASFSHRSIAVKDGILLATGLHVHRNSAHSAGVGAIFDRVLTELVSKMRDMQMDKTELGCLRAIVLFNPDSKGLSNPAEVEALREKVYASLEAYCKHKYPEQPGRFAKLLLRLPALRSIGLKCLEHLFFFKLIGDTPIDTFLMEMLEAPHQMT

[1] = mouse tail clip assay, cited from earlier work

## CCCCCCC(C)(C)c1cc(O)c2c(c1)OC(C)(C)[C@@H]1CC=C(C(=O)O)C[C@@H]21 [AJA, dimethylheptyl-THC-11-oic acid]
3T3 L1 fibroblasts
  lipid accumulation, Oil Red O staining: dramatic increase in lipid droplet staining
COX-1
  effect on COX-1 activity: no effect
PPARα
  activation of PPARα: no further activation was observed
hRXRα
  activation of reporter via RXRα: failed to activate the reporter
[1]; Dajani et al. 1999
  analgesic function: potent analgesic function comparable with morphine
[1]; compared with morphine
  duration of analgesic effect: lasted even longer than morphin
